Series [1] deals with U251 glioblastoma cells. The series can be described thus: XTT viability assay, U251. Particulars: Homo sapiens, U-251, 72 h, read-out: metabolic active cells in % of control; for viability at 5 µg/mL: U251, 5 µg/mL; for viability at 50 µg/mL: U251, 50 µg/mL. The format is cell-based. The protocol:
(§1) Human CCRF-CEM leukemia and MDA-MB-231 breast cancer cells lines were kept in RPMI1640 medium (Gibco®, ThermoFisher Scientific Inc., New York, NY, USA), supplemented with 2 mM L-glutamine (Gibco®), 10% heat-inactivated foetal bovine serum (FBS, Gibco®), 100 units/mL Penicillin (PAA), and 100 µg/mL Streptomycin (Gibco®) (1% Pen/Strep). HCT-116 and U251 cells were cultured in high-glucose Dulbecco’s Modified Eagle Medium (DMEM, Gibco®) containing 2 mM L-glutamine, 10% FBS, and 1% Pen/Strep. MRC-5 cells were grown in Minimum Essential Medium (MEM, Gibco®) supplemented with 2 mM L-glutamine, 10% FBS, and 1% Pen/Strep. All cells were kept in a humidified 5% CO2 atmosphere at 37 °C and passaged at 90% confluence.
(§2) A Cell Proliferation Kit II (XTT) was purchased from Sigma-Aldrich and performed as described previously and in accordance with the manufacturer’s protocol. In brief, adherent cell lines were seeded at a density of 50,000 cells/mL or 100,000 cells/mL (MRC-5) in 96 well plates (100 µL, flat bottom) and grown for 24 h before test compounds were added. Suspension cells (CCRF-CEM) were seeded at 100,000 cells/mL and test compounds were added immediately. After 72 h, XTT solution was added for another 90 min or 4 h (CCRF-CEM cells) and absorbance was measured at 490 nm with a reference wave length of 650 nm (Hidex Sense Microplate Reader 425-301, Hidex, Turku, Finland). Results are expressed as a percentage of the vehicle-treated (0.5% DMSO) control cells. Vinblastine served as the positive control (0.01 µg/mL).

For series [2], the system named is CCRF-CEM leukemia cells. Description: XTT viability assay, CCRF-CEM. The series is classed as cell-based. Particulars: Homo sapiens, 72 h, read-out: metabolic active cells in % of control. The protocol:
as §1, §2

Series [3] deals with T. brucei rhodesiense, strain STIB900 trypomastigote forms. The series can be described thus: In vitro growth inhibition assay of Trypanosoma brucei rhodesiense (Alamar Blue). The format is cell-based. Particulars: for IC50: Trypanosoma brucei, 72 h, strain STIB900, trypomastigote forms, read-out: T.b.rhod. IC50; for SI (IC50 in L6 cells/IC50 T. b. rhodesiense): ratio IC50 L6 / IC50 T. b. rhodesiense STIB900. The protocol:
Trypanosoma brucei rhodesiense, STIB 900 strain, and the standard drug, melarsoprol, were used for the assay. Minimum Essential Medium (50 μL) supplemented with 25 mM HEPES, 1g/L additional glucose, 1% MEM non-essential amino acids (100×), 0.2 mM 2-mercaptoethanol, 1 mM Na-pyruvate, and 15% heat-inactivated horse serum was added to each well of a 96-well microtiter plate. Serial drug dilutions of 11 three-fold dilution steps covering a range from 100 to 0.002 μg/mL were prepared. Then, 4 × 10^3 bloodstream forms of T. b. rhodesiense (STIB 900) in 50 μL were added to each well and the plate was incubated at 37 °C under a 5% CO2 atmosphere for 72 h. 10 μL Alamar Blue (resazurin, 12.5 mg in 100 mL double-distilled water) was then added to each well and incubation continued for a further 2–4 h. Then, the plates were read with a Spectramax Gemini XS microplate fluorometer (Molecular Devices Cooperation, Sunnyvale, CA, USA) using an excitation wavelength of 536 nm and an emission wavelength of 588 nm. The IC50 values were calculated from the sigmoidal inhibition curves using the microplate reader software, Softmax Pro (Molecular Devices Cooperation, Sunnyvale, CA, USA). Melarsoprol was used as the control.

Series [4] has as its system P. falciparum, strain NF54, erythrocytic stages. Description: In vitro growth inhibition assay of Plasmodium falciparum NF54 ([3H]-hypoxanthine incorporation). The series is classed as cell-based. Particulars: for IC50: Plasmodium falciparum, strain NF54, erythrocytic stages, read-out: P. falc. IC50; for SI (IC50 in L6 cells/IC50 P. falciparum): ratio IC50 L6 / IC50 P. falciparum NF54. The protocol: In vitro activity against erythrocytic stages of P. falciparum was determined by a modified [^3H]-hypoxanthine incorporation assay using the drug-sensitive NF54 strain and the standard drug, chloroquine (Sigma C6628). Briefly, parasite cultures incubated in RPMI 1640 medium with 5% AlbuMAX^TM (without hypoxanthine) were exposed to serial drug dilutions in microtiter plates. After 48 h of incubation at 37 °C in a reduced oxygen atmosphere, 0.5 μCi [^3H]-hypoxanthine was added to each well of the plate. Cultures were incubated for a further 24 h before they were harvested onto glass-fiber filters and washed with distilled water. The radioactivity was counted using a Betaplate^TM liquid scintillation counter (Wallac, Zurich). The results were recorded as counts per minute (CPM) per well at each drug concentration and expressed as a percentage of the untreated controls. IC50 values were calculated from the sigmoidal inhibition curves using Microsoft Excel.

Series [5] has as its system MDA-MB-231 breast cancer cells. Description: XTT viability assay, MDA-MB-231. The series is classed as cell-based. Particulars: Homo sapiens, 72 h, read-out: metabolic active cells in % of control; for viability at 5 µg/mL: MDA-MB-231, 5 µg/mL; for viability at 50 µg/mL: MDA-MB-231, 50 µg/mL. The protocol:
as §1, §2

For series [6], the system named is HCT-116 colon cancer cells. The series can be described thus: XTT viability assay, HCT-116. The format is cell-based. Particulars: Homo sapiens, 72 h, read-out: metabolic active cells in % of control; for viability at 5 µg/mL: HCT 116, 5 µg/mL; for viability at 50 µg/mL: HCT 116, 50 µg/mL. The protocol:
as §1, §2

The test system of series [7] is L6 cells rat skeletal myoblasts. Description: Cytotoxicity against L6 cells (Alamar Blue). The format is cell-based. Particulars: L6 rat skeletal myoblasts, 72 h; read-out: Cyt. L6 IC50. The protocol:
Assays were performed in 96-well microtiter plates, each well containing 100 μL of RPMI 1640 medium supplemented with 1% L-glutamine (200 mM) and 10% foetal bovine serum, and 4000 L6 cells (a […] cell line derived from rat skeletal myoblasts). Serial drug dilutions of 11 threefold dilution steps covering a range from 100 to 0.002 μg/mL were prepared. After 72 h of incubation, the plates were inspected under an inverted microscope to assure growth of the controls and sterile conditions. 10 μL of Alamar Blue solution was then added to each well and the plates incubated for another 2 h. Then, the plates were read with a Spectramax Gemini XS microplate fluorometer (Molecular Devices Cooperation, Sunnyvale, CA, USA) using an excitation wavelength of 536 nm and an emission wavelength of 588 nm. The IC50 values were calculated by linear regression from the sigmoidal dose inhibition curves using the microplate reader software, Softmax Pro (Molecular Devices Cooperation, Sunnyvale, CA, USA). Podophyllotoxin (Sigma P4405) was used as the control.

In series [8] the test system is MRC-5 non-tumorigenic lung fibroblasts. The series can be described thus: XTT viability assay, MRC-5. The format is cell-based, human. Particulars: Homo sapiens, MRC5, 72 h, read-out: metabolic active cells in % of control; for viability at 5 µg/mL: MRC-5, 5 µg/mL; for viability at 50 µg/mL: MRC-5, 50 µg/mL. The protocol:
as §1, §2

The molecule `O=C1C=CC(O)(CCN2C(=O)C3CCCCC3C2=O)C=C1` (centres unmarked) [Compound 13h, N-[2-(1-Hydroxy-4-oxocyclohexa-2,5-dien-1-yl)ethyl]hexahydrophthalimide] registered a melting point of 135 to 136 °C. Moreover, in [1], the viability at 5 µg/mL was found to be 74.9% and the viability at 50 µg/mL was determined as 0.18%. Moreover, in series [2], the viability at 5 µg/mL was 15.7% and the viability at 50 µg/mL is 0.69%. Besides, in series [3], the IC50 was 1700 nM and the “SI (IC50 in L6 cells/IC50 T. b. rhodesiense)” value is 1.7. In [4], the IC50 is 3040 nM and the “SI (IC50 in L6 cells/IC50 P. falciparum)” value is on record as 1.0. Further, in series [5], the viability at 5 µg/mL stood at 70.8% and the viability at 50 µg/mL amounted to 16.4%. In addition, in series [6], the viability at 5 µg/mL worked out at 44.3% and the viability at 50 µg/mL is 0.49%. For the same molecule, the IC50 in series [7] was found to be 2960 nM. Also, in [8], the viability at 5 µg/mL stood at 57.6% and the viability at 50 µg/mL is 0.76%.
In turn, `O=C1C=CC(O)(CCN2C(=O)C3CCCCC3C2O)C=C1` (centres unmarked) [Compound 15, 3-Hydroxy-N-[2-(1-hydroxy-4-oxocyclohexa-2,5-dien-1-yl)ethyl]octahydroisoindole-1-one] had a melting point of 127 to 128 °C. Also, in [1], the viability at 5 µg/mL is 97.6% and the viability at 50 µg/mL is 2.24%. Besides, in series [2], the viability at 5 µg/mL was found to be 42.4% and the viability at 50 µg/mL was found to be 0.57%. In [3], the IC50 was 1520 nM and the “SI (IC50 in L6 cells/IC50 T. b. rhodesiense)” value came out at 8.3. Besides, in [4], the IC50 is 6180 nM and the “SI (IC50 in L6 cells/IC50 P. falciparum)” value was 2.0. In series [5], the viability at 5 µg/mL amounted to 105% and the viability at 50 µg/mL came to 6.05%. Also, in series [6], the viability at 5 µg/mL was determined as 111% and the viability at 50 µg/mL was 1.44%. The IC50 in [7] was determined as 12600 nM. In addition, in [8], the viability at 5 µg/mL worked out at 135% and the viability at 50 µg/mL was determined as 4.47%.

The values are drawn from PMC6278284, “Synthesis of Jacaranone-Derived Nitrogenous Cyclohexadienones and Their Antiproliferative and Antiprotozoal Activities” (Molecules, 2018).
